How the values were obtained:
[1] = Tolerability of fluralaner via medicated drinking water in hens; format: in vivo, laying hens; settings: 2, 1, 0.5 mg/kg BW once or 2 × 0.5 mg/kg BW via medicated drinking water
Procedure: (§1) Groups A-D (n=6) were treated with doses of 2, 1 and 0.5 mg fluralaner/kg BW once or 1 mg fluralaner/kg BW split dose (0.5 mg/kg BW on 2 occasions).
(§2) On D0 (group D additionally on D7), the hens in groups A-D received fluralaner via medicated drinking water. Group E received un-medicated drinking water ad libitum.

Dermanyssus gallinae = experiment: Efficacy of fluralaner via medicated drinking water against artificially induced poultry red mite infestations of laying hens; format: in vivo; settings: for % Inhibition of mites 24 hours after infestation / % Mortality of mites 24 hours after infestation: laying hens
Procedure: as §1
Drinking water consumption in each was measured on three days prior to administration to calculate the average daily water consumption. Medicated water was prepared by diluting a fluralaner solution (10 mg/mL) as shown in the table below to the calculated fluralaner concentration.
as §2
The dose to be administered was calculated based on average body weights of each treatment group, obtained one day before treatment (D-1, D6). A fluralaner stock solution was diluted in the drinking water to prepare medicated water ready for consumption.
The volume of medicated water offered per group on D0 (group D also on D7) was approximately 50% of the calculated mean daily water intake measured previously in the respective group in order to ensure consumption of the full dose.
Once all medicated water was consumed the other 50% volume of the mean daily water intake was supplied as tap water in the same drinker.
On Day 1, Day 5, Day 8, Day 12, D15, D19 and D22 four of six hens per group were infested with approximately 200 vital, D. gallinae mites (unfed nymphs and adults that starved before infestation for 7 days).
From each infested hen approximately 25 engorged mites were collected and incubated for approximately 24 hours. The dead, damaged and/or live mites were counted visually using a binocular.
Mites were classified as dead if no movement was determined or mites lay in a dorsal position. Mites were classified as damaged if their movement was uncoordinated.
The Mite Mortality and Mite Inhibition percentage was calculated for each treated group in comparison to a not-treated negative control group.

[2] = Group A, 2 mg/kg BW once (D0) via drinking water, infestation on D1
[3] = Group A, 2 mg/kg BW once (D0) via drinking water, infestation on D5
[4] = Group A, 2 mg/kg BW once (D0) via drinking water, infestation on D8
[5] = Group A, 2 mg/kg BW once (D0) via drinking water, infestation on D12
[6] = Group A, 2 mg/kg BW once (D0) via drinking water, infestation on D15
[7] = Group A, 2 mg/kg BW once (D0) via drinking water, infestation on D19
[8] = Group A, 2 mg/kg BW once (D0) via drinking water, infestation on D22
[9] = Group B, 1 mg/kg BW once (D0) via drinking water, infestation on D1
[10] = Group B, 1 mg/kg BW once (D0) via drinking water, infestation on D5
[11] = Group B, 1 mg/kg BW once (D0) via drinking water, infestation on D8
[12] = Group B, 1 mg/kg BW once (D0) via drinking water, infestation on D12
[13] = Group B, 1 mg/kg BW once (D0) via drinking water, infestation on D15
[14] = Group B, 1 mg/kg BW once (D0) via drinking water, infestation on D19
[15] = Group B, 1 mg/kg BW once (D0) via drinking water, infestation on D22
[16] = Group C, 0.5 mg/kg BW once (D0) via drinking water, infestation on D1
[17] = Group C, 0.5 mg/kg BW once (D0) via drinking water, infestation on D5
[18] = Group C, 0.5 mg/kg BW once (D0) via drinking water, infestation on D8
[19] = Group C, 0.5 mg/kg BW once (D0) via drinking water, infestation on D12
[20] = Group C, 0.5 mg/kg BW once (D0) via drinking water, infestation on D15
[21] = Group C, 0.5 mg/kg BW once (D0) via drinking water, infestation on D19
[22] = Group C, 0.5 mg/kg BW once (D0) via drinking water, infestation on D22
[23] = Group D, 1 (2 × 0.5) mg/kg BW split dose on D0 and D7 via drinking water, infestation on D1
[24] = Group D, 1 (2 × 0.5) mg/kg BW split dose on D0 and D7 via drinking water, infestation on D5
[25] = Group D, 1 (2 × 0.5) mg/kg BW split dose on D0 and D7 via drinking water, infestation on D8
[26] = Group D, 1 (2 × 0.5) mg/kg BW split dose on D0 and D7 via drinking water, infestation on D12
[27] = Group D, 1 (2 × 0.5) mg/kg BW split dose on D0 and D7 via drinking water, infestation on D15
[28] = Group D, 1 (2 × 0.5) mg/kg BW split dose on D0 and D7 via drinking water, infestation on D19
[29] = Group D, 1 (2 × 0.5) mg/kg BW split dose on D0 and D7 via drinking water, infestation on D22

Cc1cc(C2=NOC(c3cc(Cl)cc(Cl)c3)(C(F)(F)F)C2)ccc1C(=O)NCC(=O)NCC(F)(F)F (stereo not shown) [fluralaner, 4-[5-(3,5-Dichlorophenyl)-5-trifluoromethyl-4,5-dihydroisoxazol-3-yl]-2-methyl-N-[(2,2,2-trifluoro-ethylcarbamoyl)-methyl]-benzamide]
Tolerability in hens [1]: well tolerated | % Inhibition of mites 24 hours after infestation (Dermanyssus gallinae; [2]): 100% | % Mortality of mites 24 hours after infestation (Dermanyssus gallinae; [2]): 100% | % Inhibition of mites 24 hours after infestation (Dermanyssus gallinae; [3]): 100% | % Mortality of mites 24 hours after infestation (Dermanyssus gallinae; [3]): 100% | % Inhibition of mites 24 hours after infestation (Dermanyssus gallinae; [4]): 100% | % Mortality of mites 24 hours after infestation (Dermanyssus gallinae; [4]): 100% | % Inhibition of mites 24 hours after infestation (Dermanyssus gallinae; [5]): 100% | % Mortality of mites 24 hours after infestation (Dermanyssus gallinae; [5]): 100% | % Inhibition of mites 24 hours after infestation (Dermanyssus gallinae; [6]): 81% | % Mortality of mites 24 hours after infestation (Dermanyssus gallinae; [6]): 77% | % Inhibition of mites 24 hours after infestation (Dermanyssus gallinae; [7]): 14% | % Mortality of mites 24 hours after infestation (Dermanyssus gallinae; [7]): 1% | % Inhibition of mites 24 hours after infestation (Dermanyssus gallinae; [8]): 0% | % Mortality of mites 24 hours after infestation (Dermanyssus gallinae; [8]): 0% | % Inhibition of mites 24 hours after infestation (Dermanyssus gallinae; [9]): 100% | % Mortality of mites 24 hours after infestation (Dermanyssus gallinae; [9]): 100% | % Inhibition of mites 24 hours after infestation (Dermanyssus gallinae; [10]): 100% | % Mortality of mites 24 hours after infestation (Dermanyssus gallinae; [10]): 100% | % Inhibition of mites 24 hours after infestation (Dermanyssus gallinae; [11]): 100% | % Mortality of mites 24 hours after infestation (Dermanyssus gallinae; [11]): 100% | % Inhibition of mites 24 hours after infestation (Dermanyssus gallinae; [12]): 95% | % Mortality of mites 24 hours after infestation (Dermanyssus gallinae; [12]): 94% | % Inhibition of mites 24 hours after infestation (Dermanyssus gallinae; [13]): 81% | % Mortality of mites 24 hours after infestation (Dermanyssus gallinae; [13]): 77% | % Inhibition of mites 24 hours after infestation (Dermanyssus gallinae; [14]): 3% | % Mortality of mites 24 hours after infestation (Dermanyssus gallinae; [14]): 2% | % Inhibition of mites 24 hours after infestation (Dermanyssus gallinae; [15]): 0% | % Mortality of mites 24 hours after infestation (Dermanyssus gallinae; [15]): 0% | % Inhibition of mites 24 hours after infestation (Dermanyssus gallinae; [16]): 100% | % Mortality of mites 24 hours after infestation (Dermanyssus gallinae; [16]): 100% | % Inhibition of mites 24 hours after infestation (Dermanyssus gallinae; [17]): 100% | % Mortality of mites 24 hours after infestation (Dermanyssus gallinae; [17]): 100% | % Inhibition of mites 24 hours after infestation (Dermanyssus gallinae; [18]): 100% | % Mortality of mites 24 hours after infestation (Dermanyssus gallinae; [18]): 97% | % Inhibition of mites 24 hours after infestation (Dermanyssus gallinae; [19]): 75% | % Mortality of mites 24 hours after infestation (Dermanyssus gallinae; [19]): 55% | % Inhibition of mites 24 hours after infestation (Dermanyssus gallinae; [20]): 19% | % Mortality of mites 24 hours after infestation (Dermanyssus gallinae; [20]): 15% | % Inhibition of mites 24 hours after infestation (Dermanyssus gallinae; [21]): 0% | % Mortality of mites 24 hours after infestation (Dermanyssus gallinae; [21]): 0% | % Inhibition of mites 24 hours after infestation (Dermanyssus gallinae; [22]): 0% | % Mortality of mites 24 hours after infestation (Dermanyssus gallinae; [22]): 0% | % Inhibition of mites 24 hours after infestation (Dermanyssus gallinae; [23]): 100% | % Mortality of mites 24 hours after infestation (Dermanyssus gallinae; [23]): 100% | % Inhibition of mites 24 hours after infestation (Dermanyssus gallinae; [24]): 100% | % Mortality of mites 24 hours after infestation (Dermanyssus gallinae; [24]): 100% | % Inhibition of mites 24 hours after infestation (Dermanyssus gallinae; [25]): 100% | % Mortality of mites 24 hours after infestation (Dermanyssus gallinae; [25]): 100% | % Inhibition of mites 24 hours after infestation (Dermanyssus gallinae; [26]): 100% | % Mortality of mites 24 hours after infestation (Dermanyssus gallinae; [26]): 100% | % Inhibition of mites 24 hours after infestation (Dermanyssus gallinae; [27]): 99% | % Mortality of mites 24 hours after infestation (Dermanyssus gallinae; [27]): 98% | % Inhibition of mites 24 hours after infestation (Dermanyssus gallinae; [28]): 66% | % Mortality of mites 24 hours after infestation (Dermanyssus gallinae; [28]): 59% | % Inhibition of mites 24 hours after infestation (Dermanyssus gallinae; [29]): 27% | % Mortality of mites 24 hours after infestation (Dermanyssus gallinae; [29]): 14% | Onset of action against red mites (Dermanyssus gallinae; all administered doses, orally via drinking water): fast onset of action
